Test results taken from EP1096932B1, “ANTIHYPERTENSIVE COMBINATION OF VALSARTAN AND CALCIUM CHANNEL BLOCKER” (Novartis Pharma AG, priority 1998, dated 2000).

System: diabetic SHRs
Test: Survival of streptozotocin-diabetic SHRs under drug treatment
Assay type: in vivo, spontaneously hypertensive rats (SHR)
Conditions: twice daily gavage
From the text: In diabetic SHRs the presence of hypertension is an important determinant of renal injury, manifesting in functional changes such as albuminuria and in ultrastructural injury. For example, diabetic SHRs show ventricular hypertrophy and develop nephropathy resulting in sudden death events. Accordingly, the use of this animal model is well-applied in the art and suitable for evaluating effects of drugs on the development of diabetic renal diseases. There is a strong need to achieve a significant increase of the survival rate by treatment of hypertension in diabetes especially in NIDDM. It is known that CCBs are not considered as first line antihypertensives e.g. in NIDDM treatment. Though some kind of reduction of blood pressure may be achieved with CCBs, they may not be indicated for the treatment of renal disorders associated with diabetes.
Diabetes is induced in SHRs aged about 6 to 8 weeks weighing about 250 to 300 g by treatment e.g. with streptozotocin. The drugs are administered by twice daily gavage. Untreated diabetic SHRs are used as control group (group 1). […] On a regular basis, besides other parameters the survival rate after 21 weeks of treatment is being monitored. In week 21 of the study, following survival rates have been determined: […]

## CCCCC(=O)N(Cc1ccc(-c2ccccc2-c2nnn[nH]2)cc1)[C@H](C(=O)O)C(C)C [valsartan, (S)-N-(1-carboxy-2-methyl-prop-1-yl)-N-pentanoyl-N-[2'(1H-tetrazol-5-yl)biphenyl-4-yl-methyl]amine]
30 mg/kg of valsartan, week 21 (group 2)
  Survival Rate: 45.9%

## COc1ccc(CCN(C)CCCC(C#N)(c2ccc(OC)c(OC)c2)C(C)C)cc1OC (centres unmarked) [verapamil]
20 mg/kg of verapamil, week 21 (group 3)
  Survival Rate: 42.9%
